Laboratory results from a melting point compilation (Tetko et al.; mined from patent text by program, amines drawn as free bases though some values may be those of a salt).
Residues, ends and D or L forms follow the SMILES beside them. *: point of attachment. OiPr = CC(C)O*

Row | melting point | SMILES
1 | 132 to 135 °C | COc1ccc(C(=O)CN2CCN(c3cccccc3=O)CC2)cc1OC
2 | 115 to 117 °C | COc1ccc(/C=C/S(=O)(=O)Nc2ccc(F)cc2)cc1
3 | 107 to 110 °C | Cc1nn(C)c2c1N=C(C1CC1)N1CC(C)N=C21 (stereo unspecified)
4 | 115 to 117 °C | CC(C)(C)NS(=O)(=O)Cc1ccccc1N
5 | 208 °C | CCOC(=O)C1=C(C)Nc2nc(N)nc(N3CCOCC3)c2C1c1cccc([N+](=O)[O-])c1 (stereo unspecified)
6 | 78 °C | C[C@H]1[C@H](NC(=O)OC(C)(C)C)C(=O)N1OCc1ccccc1
7 | 58 to 60 °C | COCCC1CCCCc2c1oc(=O)c(C(c1ccccc1)C1CC1)c2O (stereo unspecified)
8 | 173 °C | O=C(CCO)N[C@H]1CC[C@H](CCN2CCN(c3nccc4c3CCO4)CC2)CC1
9 | 206 °C | COc1ccc(C=C(C#N)C(=O)O)cc1OC
10 | 135 to 137 °C | Clc1ccc(-c2c(Cc3nc4ccccc4s3)cnn2-c2ccccc2)cc1
11 | 79 °C | O=C(NC[C@H]1O[C@@H]1c1ccccc1)C(F)(F)F (racemic)
12 | 228 to 230 °C | O=C1CC(=CCl)c2c(O)cc(O)cc2O1
13 | 221 to 223 °C | COc1ccc(C(=O)/C=C/c2c(-c3ccc(F)cc3)nc3sccn23)cc1OC
14 | 279 to 280 °C | O=C(O)c1ccc(/C=C/c2ccc(O)c(C34CC5CC(CC(C5)C3)C4)c2)cc1
15 | 150 to 152 °C | COc1ccc(COc2ccc(CSc3ccc(OCC(=O)O)c(C)c3)cc2)cc1
16 | 100 to 101 °C | CC(CO)Nc1nc(-c2ccc(Br)cc2)cs1 (stereo unspecified)
17 | 91 to 92 °C | Cc1oc(-c2ccccc2)nc1COc1ccc(COc2nn(Cc3ccccc3)cc2CC(=O)O)cc1
18 | 195 to 197 °C | COc1ccc(CN2C(=O)C(c3cc4c(C)noc4cc3O)c3ccccc32)cc1 (stereo unspecified)
19 | 169 to 171 °C | O=C(OCC1OC(n2cc(F)c(=O)[nH]c2=O)CC1OCc1ccccc1)c1ccc2c(c1)OCO2 (stereo unspecified)
20 | 100 to 102 °C | CCCC[C@H](NC(=O)[C@H](CC(C)C)NC(=O)c1ccc(C(=O)OC)cc1)C(=O)CSCc1ccco1
21 | 80 to 80.5 °C | O=C1CC(OC(CBr)CBr)N1 (stereo unspecified)
22 | 119 to 121 °C | CCc1cccc(C)c1C(=O)N[C@@H](Cc1ccc([N+](=O)[O-])cc1)C(=O)OC
23 | 132 °C | Cc1ccc(-c2nccc3c(C#N)cccc23)cc1
24 | 148 to 150 °C | Cc1nc(CNC(=O)c2sc(-n3cnn(Cc4ccc(F)cc4)c3=O)cc2C)cs1

Row | melting point | SMILES
25 | 163 to 166 °C | COc1ccc(C(=O)Nc2ccc3c(c2)CCCC3=O)cc1
26 | 84 °C | CC(C)(C)OC(=O)CN(Cc1cc(C(F)(F)F)cc(C(F)(F)F)c1)Cc1cc2ccccc2nc1Cl
27 | 332 °C | O=C1c2ccccc2C(=O)c2c1oc1c2ccc2ccc(O)cc21
28 | 148 to 149 °C | O=Cc1c(-c2ccc(Cl)cc2)nsc1-c1ccccc1
29 | 73 °C | COc1ccc(C(=O)Sc2ccccn2)cc1
30 | 206 to 208 °C | CSc1ccc(CC2=C(O)CSC2=O)cc1
31 | 160 to 161 °C | O=C(Nc1ccc(C(F)(F)F)cc1)NC(Cc1ccc(C(F)(F)F)cc1)C(O)c1ccc(F)cc1 (stereo unspecified)
32 | > 320 °C | CCOc1cccc(-c2nc3ccc(C(=O)O)cc3c(=O)[nH]2)c1OCC
33 | 236 to 238 °C | COc1cc(C(=O)NS(=O)(=O)c2ccccc2C)ccc1Cc1c(Cl)n(C)c2cc(Cl)c(CCNC(=O)N(C)C)cc12
34 | 147 to 148 °C | Cc1nc(O)n(COCc2ccccc2)c1Sc1ccccc1
35 | 130 °C | CC(=O)Nc1cc([N+](=O)[O-])ccc1OCCCCl
36 | 118 to 120 °C | CC(C)CC(NC(=O)C1CCCN1C(=O)OCc1ccccc1)OCC(=O)O (stereo unspecified)
37 | 149 to 151 °C | CCCCc1nc2cccc(C(=O)OC)c2n1Cc1ccc(-c2ccccc2N2CC(=O)NC2=O)cc1
38 | 263 °C | COc1ccc(C=CC(=O)NNC(=O)C=Cc2ccccc2)cc1
39 | 326 to 328 °C | CC(C)(C)c1ccc(-c2nc(NC(=O)c3cccnc3)sc2-c2ccncc2)cc1
40 | 103 to 104 °C | COc1ccc2c(c1)C(=NO)CCCO2
41 | 151 to 152 °C | COc1cc(COc2nn(Cc3ccccc3)cc2C=O)ccc1OCc1nc(-c2ccccc2)oc1C
42 | 136 to 140 °C | Cc1ccc(C=C2C(=O)N(c3cc(F)ccc3F)C(=O)N2C)cc1
43 | 125 to 126 °C | COc1ccc(Cl)cc1C(=O)NC(C)Cc1ccc(CCC(=O)O)cc1 (stereo unspecified)
44 | 172 to 174 °C | Cc1ccc2c(-c3ccc(F)cc3)nc(=O)n(C(C)C)c2c1
45 | 148 to 150 °C | CC(C)(C)OC(=O)NCCCCn1cnc2c(Cl)nc3ccccc3c21
46 | 214 to 215 °C | Cc1ccc(Cc2cnc(NCCCCNc3ccc(Cl)cn3)[nH]c2=O)cn1
47 | 244 to 246 °C | CC(C)c1nc(-c2ccccc2)c(C(C)C)c(-c2ccc(F)cc2)c1CO
48 | 144 °C | O=C(N1CCCC1)C1(N2CCCCC2)CCNCC1

Row | melting point | SMILES
49 | 222 to 224 °C | CN1C(=O)C2C3CCC(C2C1=O)N1COc2ccccc2N=C31 (stereo unspecified)
50 | 154 to 156 °C | CCCOc1ccc(CNc2cc(C(=O)Nc3ccccc3)ccc2OC)cc1
51 | 186 °C | CSc1ccc(-c2n[nH]c(=O)cc2-c2ccccc2)cc1
52 | 232 to 233 °C | CC(C)(N)c1ccc(-c2nc(Nc3ccc(-n4ccnc4)cc3)ncc2C#N)cc1
53 | 105 to 106 °C | Fc1cc(OCc2ccccc2)cnc1-c1ccccc1
54 | 221 to 223 °C | Cc1cccc(NC(=O)C2=C(O)c3ccc4ccccc4c3S(=O)(=O)N2C)n1
55 | 120 to 122 °C | Cc1nc(-c2c(F)cccc2Cl)nn1-c1ccc(CO)cc1
56 | 32 to 33 °C | CCCCCCCCCCCCCCn1ccc(C(=O)OCC)c1
57 | 107 to 109 °C | COc1cc(Cl)c(C=O)c(Cl)c1
58 | 121 °C | CCCNC(=O)c1ccc(CCCc2cc(S(C)(=O)=O)ccc2OCc2ccccc2)cc1
59 | 168 to 170 °C | N=C(N)Nc1ncc(CO)s1
60 | 120 °C | Cc1c(CC(=O)N[C@@H](CO)C(=O)O)cc(-c2ccc(S(C)(=O)=O)cc2)n1-c1ccc(F)cc1
61 | 160 to 161 °C | COc1ccc(N2CCOC(c3ccc(C(F)(F)F)cc3)C2)c(-c2ccc(N(C)C)cc2)n1 (stereo unspecified)
62 | 139 to 140 °C | COCCC1CCCCN1C(=O)C=Cc1c(-c2ccccc2)nn2ccccc12 (stereo unspecified)
63 | 240 to 242 °C | OCc1ccc2ncc(C(=S)NCc3ccc(Cl)cc3)c(O)c2c1
64 | 137 to 139 °C | CN1CCN(c2ccccc2C(O)C2SCCNC2=O)CC1 (stereo unspecified)
65 | 77 to 80 °C | CC(c1cc(C(C)(C)C#N)cc(C(C)(C)C#N)c1)n1ccnc1 (stereo unspecified)
66 | 127 °C | COCC1CN(C(=O)c2cc(OC)c(OC)c(OC)c2)CCN1C(=O)OC(C)(C)C (stereo unspecified)
67 | 135 to 136 °C | COc1cc2c(c3c1OC(C)(C)C3)C(Nc1ccccc1)=NC(C)(C)C2
68 | 194 to 195 °C | CC(=O)Nc1nc2c(Oc3cc(-c4ccc(C(F)(F)F)cc4NC(=O)OC(C)(C)C)ncn3)cccc2s1
69 | 125 to 127 °C | COc1ccc2sc(S(N)(=O)=O)cc2c1
70 | 130 °C | O=C(O)CCCCCCCn1cnc(-c2ccccc2)c1-c1ccccc1
71 | > 300 °C | O=C(O)c1ccc(-c2c[nH]c(=O)cn2)cc1
72 | 216 to 218 °C | CCn1nc(C#N)c(=O)c2ccccc21

Row | melting point | SMILES
73 | 118 to 119 °C | C=CCn1c(C)c(C)c2cnnc(CCc3ccc(F)cc3F)c21
74 | 130 to 131 °C | CCC1(C)COP(=O)(Cc2ccc(N)cc2)OC1 (stereo unspecified)
75 | 53 to 56 °C | CC(C)(CN)Cc1ccc(CC(C)(C)CN)cc1
76 | 124 to 126 °C | FC(F)(F)Oc1ccc(-n2cnc(-c3ccc(CBr)cc3)n2)cc1
77 | 83 to 84 °C | COC(=O)c1cc2c(C)ccc(C)c2n1C(=O)Oc1ccccc1
78 | 175 to 187 °C | CCCn1c(=O)c2c(nc(/C=C/c3ccc(Cl)cc3)n2C)n(CCC)c1=O
79 | 55 to 60 °C | CC(=NO)c1ccccc1N
80 | 192 °C | Nc1nc2ccc(OS(=O)(=O)c3ccc(F)cc3)cc2[nH]1
81 | 140 °C | COc1cc(-c2ccncc2)n[nH]1
82 | 74 to 77 °C | CS(=O)(=O)c1nc(Cl)cc(OCc2ccccc2)n1
83 | 135 °C | O=C(O)Cc1cc(N=Nc2ccc(S(=O)(=O)Nc3ccccn3)cc2)ccc1O
84 | 150 to 151 °C | COc1cc(Nc2nccc(-c3ccc4c(c3)CCCC4)n2)cc(OC)c1OC
85 | 188 °C | CC(O)C(=O)NCCNC(=O)C(C)O (stereo unspecified)
86 | 93 to 94 °C | O=C(O)CSCCCCCNS(=O)(=O)c1ccc(Cl)cc1
87 | 87 to 90 °C | Brc1ccc2c(c1)CCOC2CCN1CCN(c2ccc(OCc3ccccc3)cc2)CC1 (stereo unspecified)
88 | 228 to 230 °C | Nc1ccc(F)c(-n2cc(C(=O)O)c(=O)c3cc(F)c(F)c(Cl)c32)n1
89 | 85 to 86 °C | CCOC(=O)c1ccccc1-c1cc(-c2ccc(Cl)cc2Cl)no1
90 | 70 to 84 °C | Cc1ccc(OC2SCC(O)C(O)C2O)c(-c2c(C)noc2C)n1 (stereo unspecified)
91 | 142 °C | CCS(=O)(=O)c1ccc2c(c1)nc(CC(C)(C)C)n2CC1CCCO1 (stereo unspecified)
92 | 230 to 233 °C | CC(C)OC(=O)C(CO)NC(=O)C(CC(=O)O)NC(=O)C1CCCN1 (stereo not drawn) (H-Pro-Asp-Ser-OiPr; configuration not given here)
93 | 273 to 280 °C | CCCn1c(=O)n2c(-c3ccccc3)nnc2c2[nH]cnc21
94 | 164 to 165 °C | COC(=O)C(Cl)C(Cl)c1ccccc1 (stereo unspecified)
95 | 138 °C | N#Cc1cc(N)ccc1N1CCC(N2CCSCC2)CC1
96 | 110 to 112 °C | CCOC(=O)c1oc(I)nc1C

Row | SMILES | melting point
97 | Cc1cccc(NC(=O)NC2N=C(c3ccccc3F)c3ccccc3N(Cc3nc4ccccc4o3)C2=O)c1 (racemic) | 209 to 210 °C
98 | CC(C)C[C@@H](NC(=O)c1cnc(N2CCC(N3C(=O)OCc4ccccc43)CC2)c(Cl)c1)C(N)=O | 139 to 142 °C
99 | COc1ccc(NC(=O)c2nnn(Cc3ccc(F)cc3)c2C)cc1OC | 120 °C
100 | CN1C(=O)[C@H](NC(=O)CNc2ccccc2)N=C(c2ccccc2)c2ccccc21 | 245 to 246 °C
101 | O=C1c2ccccc2-n2cnc(-c3cccc(Cl)c3)c2[C@@H]2CCCN12 | 242 to 243 °C
